Measured values published in patent US12186332B2, “Methods for overcoming WNT/beta-catenin anti-cancer resistance in leukemia stem cells” (STOWERS INSTITUTE FOR MEDICAL RESEARCH, priority 2019, dated 2025).

Legend:
pS^552-β-cat^+ LSCs = experiment: Pilot clinical trial of low-dose DNR in relapsed/refractory adult AML; format: in vivo, human; details: low-dose DNR 6.75 mg/m^2 daily ×5; BM day 0 vs day 8
Excerpt: This was registered at clinicaltrials.gov (identifier NCT02914977). All patients provided informed consent according to institutional guidelines. At least two prior induction attempts were required for fit patients with primary refractory leukemia; unfit or relapsed patients were allowed entry with one prior therapy. There was no limit on number of prior therapies. […] Exclusion criteria included presence of acute promyelocytic leukemia, CNS leukemia or total lifetime anthracycline exposure exceeding the equivalent of 900 mg/m^2 of DNR. Treatment consisted of bone marrow aspiration for correlative studies followed by one cycle of low dose DNR (6.75 mg/m^2×5 consecutive days, days 1-5) and second bone marrow aspiration on day 8. Effects on LSC population were measured by flow cytometry. Adverse events (AEs) and laboratory values were monitored for safety. This study is compliant with all relevant ethical regulations regarding research involving human participants and was approved by the Human Subjects Committee at the University of Kansas.

[1] = test system: Akt-enhanced β-catenin activity (TOP-Luc); experiment: HTS TOPFlash/FOPFlash luciferase reporter dose-response; format: cell-based; details: DNR dose-response (FIG. 13A)
[2] = test system: blast cells, LSCs and HSPCs of leukemic Pten:β-cat^Act mice; format: in vivo; details: low-dose DNR with chemotherapy
Method: Leukemic mice were treated with vehicle, chemotherapy, [Low]DXR (5×0.5 mg/kg), clinical DXR (1×20 mg/kg), or chemotherapy+[Low]DXR as described in FIG. S2.
Average frequency of each population (n≥6 per group) is shown.
Absolute number/femur±SD of each population (n≥6 per group) is shown.
At 10 days post-treatment, BM was analyzed by flow cytometry to determine frequency of blast cells. Average frequency±SD (n 6 per group). Note that this experiment used clinical dose (normal) or [Low]
Alternatively, a single injection on day 1 of 0.8 or 2.5 μg/g of DXR-loaded nanoparticles (NanoDXR) was given with and without chemotherapy. At 10 days post-treatment, BM was analyzed by flow cytometry to determine frequency of LSCs. Shown is average frequency±SD (n 6 per group).
Alternatively, a single injection on day 1 of 0.8 or 2.5 μg/g of DXR-loaded nanoparticles (NanoDXR) was given with and without chemotherapy. At 10 days post-treatment, BM was analyzed by flow cytometry to determine frequency of HSPCs. Shown is average frequency±SD (n 6 per group).
Whole bone marrow was isolated from uninduced HSC-SCL-Cre^+ Pten^fx/fx βcat^fx(Exon3)/+ (Pn:β-cat^Act) mice and combined with an equal portion of Cre negative bone marrow from a littermate and transplanted into irradiated (10 Grays) B6.SJL-Ptprc^a Pepc^b/BoyJ (Ptprc) recipients.
Chemotherapy for the animal model consisted of Nelarabine (Selleck) and Dexamethasone (BioVision) administered daily for 5 days consecutively. 43.4 mg/ml Nelarabine was administered intravenously via the tail vain according to the formula: Body Weight (g)×5=volume to inject (μl), which yielded 217 mg/kg. 2.5 mg/ml Dexamethasone was injected intraperitoneally according to the formula: Body Weight (g)×4=volume to inject (μl), yielding 10 mg/kg. […] [Low] NanoDXR treatment used doxorubicin nanoparticles (Tran et al. 2014) administered as a single IV injection once per week on day 1 relative to above treatments using 0.8 mg/kg. Maintenance [Low] NanoDXR consisted of once per week injections of 0.4 mg/kg. Groups combining Nelarabine with Doxorubicin used a single injection containing both drugs. All drugs were solubilized in 45% (2-Hydroxypropyl)-p-cyclodextrin (HBC) or 0.9% NaCl.
Cells were collected from bone marrow (femur and tibia), spleen, peripheral blood, and thymus. For cell surface phenotyping, a lineage cocktail (Lin) was used including CD3 (for HSPC but not LSC analysis), CD4, CD8, Mac-1, Gr, B220, IgM, and Ter119 (eBioscience, San Diego, CA). Monoclonal antibodies against CD3 (separate fluorophore for LSC analysis), Sca-1, c-Kit, CD45.1, and CD45.2 were also used where indicated. Cell sorting and analysis were performed using an inFlux (BD), MoFlo (Dako, Ft. Collins, CO) and/or CyAn ADP (Dako, Ft. Collins, CO). Data analysis was performed using FlowJo software (Ashland, OR).

## COc1cccc2c1C(=O)c1c(O)c3c(c(O)c1C2=O)C[C@@](O)(C(C)=O)C[C@@H]3O[C@H]1C[C@H](N)[C@H](O)[C@H](C)O1 [DNR, Daunorubicin]
pS^552-β-cat^+ LSCs
  patients with substantial reductions in pS552-β-cat+ LSCs: 5/10
  patients with unchanged pS552-β-cat+ LSCs: 3/8
[1]
  inhibition of pS552-β-catenin compared with DXR: similarly inhibits pS^552-β-catenin
[2]
  LSC, HSPC and blast cell frequency compared with low-dose doxorubicin: performs similarly to low-dose doxorubicin
